ChEMBL document CHEMBL4387766, “Synthesis and biological evaluation of PSMA-targeting paclitaxel conjugates” (Bioorg Med Chem Lett, 2019)

Key:
[1] = Selectivity ratio of CC50 for human VA13 cells to CC50 for PSMA-positive human LNCAP cells
LNCaP = assay: Cytotoxicity against PSMA-positive human LNCAP cells assessed as reduction in cell viability measured after 72 hrs by MTT assay; assay type: functional
[2] = Cytotoxicity against HEK293T cells assessed as reduction in cell viability measured after 72 hrs by MTT assay; assay type: cell-based, HEK-293T; details: human
CWR22R [3] = assay: Antitumor activity against human 22Rv1 cells xenografted in nu/nu mouse assessed as tumor growth inhibition at 10 mg/kg, iv administered 3 times per week relative to control; assay type: functional; details: 22Rv1, iv, read-out: TGI
[4] = Selectivity ratio of CC50 for human VA13 cells to CC50 for PSMA-positive human 22Rv1 cells
[5] = Cytotoxicity against human MCF7 cells assessed as reduction in cell viability measured after 72 hrs by MTT assay; assay type: cell-based
CWR22R [6] = assay: Cytotoxicity against PSMA-positive human 22Rv1 cells assessed as reduction in cell viability measured after 72 hrs by MTT assay; assay type: functional; details: 22Rv1, 72 h
[7] = Selectivity ratio of CC50 for human PSMA-deficient PC3 cells to CC50 for PSMA-positive human 22Rv1 cells; assay type: functional
[8] = Selectivity ratio of CC50 for human PSMA-deficient PC3 cells to CC50 for PSMA-positive human LNCAP cells; assay type: functional
[9] = Cytotoxicity against human VA13 cells assessed as reduction in cell viability measured after 72 hrs by MTT assay; assay type: cell-based; details: WI-38 VA13 cells
PC-3 = assay: Cytotoxicity against PSMA-deficient human PC3 cells assessed as reduction in cell viability measured after 72 hrs by MTT assay; assay type: functional; details: PC-3, 72 h
[10] = Cytotoxicity against human A549 cells assessed as reduction in cell viability measured after 72 hrs by MTT assay; assay type: cell-based
[11] = target: Glutamate carboxypeptidase 2 (Homo sapiens, UniProt Q04609); assay: Inhibition of PSMA in human LNCAP cells using NAAG as substrate measured after 2 hrs by amplex red reagent based fluorescence assay; assay type: cell-based
CWR22R [12] = assay: Antitumor activity against human 22Rv1 cells xenografted in nu/nu mouse assessed as tumor growth inhibition at 6 mg/kg, iv administered 3 times per week relative to control; assay type: functional; details: 22Rv1, iv, read-out: TGI

Sequence of Glutamate carboxypeptidase 2 (Q04609 whole entry): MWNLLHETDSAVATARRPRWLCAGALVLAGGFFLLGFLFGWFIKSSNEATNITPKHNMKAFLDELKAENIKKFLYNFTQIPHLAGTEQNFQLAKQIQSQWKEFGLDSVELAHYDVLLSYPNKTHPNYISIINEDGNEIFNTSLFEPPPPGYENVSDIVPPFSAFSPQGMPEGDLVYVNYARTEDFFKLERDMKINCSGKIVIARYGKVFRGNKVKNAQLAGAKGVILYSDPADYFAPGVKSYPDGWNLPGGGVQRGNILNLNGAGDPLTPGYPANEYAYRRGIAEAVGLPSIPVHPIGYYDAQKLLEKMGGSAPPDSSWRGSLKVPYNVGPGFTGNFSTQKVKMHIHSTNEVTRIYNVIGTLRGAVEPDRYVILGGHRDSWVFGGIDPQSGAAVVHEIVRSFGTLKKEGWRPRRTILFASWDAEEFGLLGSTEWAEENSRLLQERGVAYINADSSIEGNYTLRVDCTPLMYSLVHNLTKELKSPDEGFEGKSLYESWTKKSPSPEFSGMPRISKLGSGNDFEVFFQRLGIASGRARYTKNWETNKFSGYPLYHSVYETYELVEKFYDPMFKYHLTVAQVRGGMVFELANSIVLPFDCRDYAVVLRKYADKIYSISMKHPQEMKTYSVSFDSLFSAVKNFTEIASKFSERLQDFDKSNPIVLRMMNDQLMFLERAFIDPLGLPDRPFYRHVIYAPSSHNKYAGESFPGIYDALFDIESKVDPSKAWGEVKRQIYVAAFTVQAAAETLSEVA

IC50 [11] [µM]	Structure (SMILES)	Selectivity ratio [1]	CC50 (LNCaP) [µM]	CC50 at 72 h [2] [µM]	inhibition in vivo at 10 mg/kg (CWR22R [3]) [%]	Selectivity ratio [4]	CC50 at 72 h [5] [µM]	CC50 (CWR22R [6]) [µM]	Selectivity ratio [7]	Selectivity ratio [8]	CC50 at 72 h [9] [µM]	CC50 (PC-3) [µM]	CC50 at 72 h [10] [µM]	inhibition in vivo at 6 mg/kg (CWR22R [12]) [%]
	CC(=O)O[C@H]1C(=O)[C@@]2(C)[C@H]([C@H](OC(=O)c3ccccc3)[C@]3(O)C[C@H](OC(=O)[C@H](OC(=O)CCCc4cn(CCCCCC(=O)NCCCC[C@H](NC(=O)N[C@@H](CCC(=O)O)C(=O)O)C(=O)O)nn4)[C@@H](NC(=O)c4ccccc4)c4ccccc4)C(C)=C1C3(C)C)[C@]1(OC(C)=O)CO[C@@H]1C[C@@H]2O	0.47	0.058	< 0.02	30	0.62	< 0.02	0.12	1.13	0.85	< 0.02	0.095	< 0.02	
1.47	NCCCC[C@H](NC(=O)N[C@@H](CCC(=O)O)C(=O)O)C(=O)O										> 100			
0.17	[N-]=[N+]=NCCCCCC(=O)N(CCCC[C@H](NC(=O)N[C@@H](CCC(=O)O)C(=O)O)C(=O)O)Cc1ccc(Br)cc1													
	CC(=O)O[C@H]1C(=O)[C@@]2(C)[C@H]([C@H](OC(=O)c3ccccc3)[C@]3(O)C[C@H](OC(=O)[C@H](O)[C@@H](NC(=O)c4ccccc4)c4ccccc4)C(C)=C1C3(C)C)[C@]1(OC(C)=O)CO[C@@H]1C[C@@H]2O [PACLITAXEL]	1	0.0014	< 0.02		1	< 0.02	0.0039	1	1	< 0.02	0.0027	< 0.02	30
0.14	[N-]=[N+]=NCCCCCC(=O)N(CCCC[C@H](NC(=O)N[C@@H](CCC(=O)O)C(=O)O)C(=O)O)Cc1ccc(O)cc1										50.2			
0.11	[N-]=[N+]=NCCCCCC(=O)N(CCCC[C@H](NC(=O)N[C@@H](CCC(=O)O)C(=O)O)C(=O)O)Cc1ccc(Cl)cc1										> 100			
	CC(=O)O[C@H]1C(=O)[C@@]2(C)[C@H]([C@H](OC(=O)c3ccccc3)[C@]3(O)C[C@H](OC(=O)[C@H](OC(=O)CCCc4cn(CCCCCC(=O)N(CCCC[C@H](NC(=O)N[C@@H](CCC(=O)O)C(=O)O)C(=O)O)Cc5ccc(Cl)cc5)nn4)[C@@H](NC(=O)c4ccccc4)c4ccccc4)C(C)=C1C3(C)C)[C@]1(OC(C)=O)CO[C@@H]1C[C@@H]2O	0.26	1.48	0.04		0.7	0.078	1.67	0.91	0.34	0.048	1.03	< 0.03	
